From patent US20050277142A1, “Recombinant cell line for the detection of dioxin-like compounds based on the expression of luciferase gene” (priority 2004, published 2005)

Key:
[1] = system: aryl hydrocarbon receptor (AHR); conditions: 2,3,7,8-TCDD set to 1; cited from earlier work
[2] = cited from earlier work
[3] = system: dioxin-response elements (DREs)-luciferase in Hepa1c1c7-M4P2 cells; test: luciferase light intensity bioassay in transfected cell line Hepa1c1c7-M4P2; assay type: cell-based, mouse
Method: (§1) The transfected cells (4×10^5 cells/well) were placed in a 24 well-culture plate. To each well was added 1 mL of culture medium (DMEM+10% FBS). Thereafter, the culture plate was placed in a constant-temperature incubator set at 37° C. and 5% CO2 for two hours to permit cell adhesion.
(§2) The Dioxin (2,3,7,8-TCDD) stock solution with a concentration of 10 μg/mL was subjected to 10-fold serial dilution. 3.22 μl of each diluted solution was taken and added to each well of the culture plate, such that the final concentrations of dioxin in the experimental groups are 10 nM, 1 nM, 100 pM, […], 10 pM, 1 pM and 0.1 pM, respectively. Each experimental group was prepared in quadruplicate. The normal control group was not subjected to any treatment, whereas the solvent control group was treated using 3.22 μl of DMSO. […]
(§3) 100 μl of the lysate obtained in each group was taken and added to each well of a non-transparent 96-well plate, followed by addition of 50 μl of luciferin (which is included in the Luciferase Assay System, (Cat#1500), Promega Cooperation). Finally, the plate was sent to a Beckman coulter DU640B spectrophotometer (set at PMT:1100; read length:0.5; and Gain:1˜100) for automatic detection of the light intensity within 20 seconds. The experimental results thus obtained were analyzed and plotted using statistical analysis, so as to determine whether the results have statistic significance. […]

[4] = system: dioxin-response elements (DREs)-luciferase in Hepa1c1c7-MP cells; test: luciferase light intensity bioassay in transfected cell line Hepa1c1c7-MP; assay type: cell-based, mouse
Method: as §1, §2, §3

[5] = 100 pM 2,3,7,8-TCDD, 5, 10, 15 and 20 hours tested

| Compound | I-TEF [1] | further results |
| --- | --- | --- |
| Clc1cc2oc3cc(Cl)c(Cl)c(Cl)c3c2c(Cl)c1Cl [1,2,3,7,8,9-HxCDF] | 0.1 |  |
| Clc1c(Cl)c(Cl)c2c(c1Cl)Oc1c(Cl)c(Cl)c(Cl)c(Cl)c1O2 [OCDD] | 0.001 |  |
| Clc1cc2c(oc3c(Cl)c(Cl)c(Cl)c(Cl)c32)c(Cl)c1Cl [1,2,3,4,6,7,8-HpCDF] | 0.01 |  |
| 2,3,7,8-tetrachloro-dibenzo-p-dioxin [2,3,7,8-TCDD] |  | water solubility [2]: 0.0193 ng/mL |
| Clc1cc2c(c(Cl)c1Cl)Oc1c(Cl)c(Cl)c(Cl)c(Cl)c1O2 [1,2,3,4,6,7,8-HpCDD] | 0.01 |  |
| Clc1cc2oc3c(Cl)c(Cl)c(Cl)c(Cl)c3c2c(Cl)c1Cl [1,2,3,4,7,8,9-HpCDF] | 0.01 |  |
| Clc1cc2c(oc3cc(Cl)c(Cl)c(Cl)c32)c(Cl)c1Cl [1,2,3,6,7,8-HxCDF] | 0.1 |  |
| Clc1cc2c(cc1Cl)Oc1c(cc(Cl)c(Cl)c1Cl)O2 [1,2,3,7,8-PeCDD] | 0.5 |  |
| Clc1cc2oc3cc(Cl)c(Cl)c(Cl)c3c2cc1Cl [1,2,3,7,8-PeCDF] | 0.05 |  |
| Clc1c(Cl)c(Cl)c2c(oc3c(Cl)c(Cl)c(Cl)c(Cl)c32)c1Cl [OCDF] | 0.001 |  |
| Clc1cc2oc3cc(Cl)c(Cl)cc3c2cc1Cl [2,3,7,8-TCDF] | 0.1 |  |
| Clc1cc2c(cc1Cl)Oc1cc(Cl)c(Cl)cc1O2 [2,3,7,8-TCDD, 2,3,7,8-tetrachloro-dibenzo-p-dioxin] | 1 | dioxin treatment time giving the most stable and the optimal light intensity result [3, 5]: 15 h; lowest limit of dioxin detection (obvious light intensity changes vs controls) ([3]; 15 hours treatment): 5 pM; dioxin treatment time giving the most stable and the optimal light intensity result [4, 5]: 20 h; lowest limit of dioxin detection (significant light intensity changes vs controls) ([4]; 15 hours treatment): 5 pM |
| Clc1cc2c(cc1Cl)Oc1c(Cl)c(Cl)c(Cl)c(Cl)c1O2 [1,2,3,4,7,8-HxCDD] | 0.1 |  |
| Clc1cc2c(oc3c(Cl)c(Cl)c(Cl)cc32)c(Cl)c1Cl [2,3,4,6,7,8-HxCDF] | 0.1 |  |
| Clc1cc2oc3c(Cl)c(Cl)c(Cl)c(Cl)c3c2cc1Cl [1,2,3,4,7,8-HxCDF] | 0.1 |  |
| Clc1cc2c(c(Cl)c1Cl)Oc1c(cc(Cl)c(Cl)c1Cl)O2 [1,2,3,7,8,9-HxCDD] | 0.1 |  |
| Clc1cc2c(c(Cl)c1Cl)Oc1cc(Cl)c(Cl)c(Cl)c1O2 [1,2,3,6,7,8-HxCDD] | 0.1 |  |
